Consider 14 compounds from ChEMBL document CHEMBL1147417, “Synthesis of new thiophene and benzo[b]thiophene hydrazide derivatives as human NPY Y(5) antagonists” (Bioorg Med Chem Lett, 2004).

pIC50: −log10 of the molar value.

The target of experiment [1] is T1, Neuropeptide Y receptor type 1 (Homo sapiens, UniProt P25929).
T1 sequence (P25929 whole entry): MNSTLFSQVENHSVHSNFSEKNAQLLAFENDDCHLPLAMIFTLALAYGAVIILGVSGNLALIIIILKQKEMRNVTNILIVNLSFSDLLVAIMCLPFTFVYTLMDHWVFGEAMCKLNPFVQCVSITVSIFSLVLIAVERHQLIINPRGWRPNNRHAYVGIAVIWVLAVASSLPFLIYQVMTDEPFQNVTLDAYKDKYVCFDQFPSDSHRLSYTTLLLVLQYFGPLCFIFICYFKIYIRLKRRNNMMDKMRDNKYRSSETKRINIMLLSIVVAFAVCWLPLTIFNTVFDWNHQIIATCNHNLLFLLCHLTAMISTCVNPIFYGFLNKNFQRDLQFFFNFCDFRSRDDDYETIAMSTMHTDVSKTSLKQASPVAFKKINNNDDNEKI
In words: Human Neuropeptide Y1 receptor binding affinity.

For experiment [2], the target named is T2, Neuropeptide Y receptor type 5 (Homo sapiens, UniProt Q15761).
T2 sequence (Q15761 whole entry): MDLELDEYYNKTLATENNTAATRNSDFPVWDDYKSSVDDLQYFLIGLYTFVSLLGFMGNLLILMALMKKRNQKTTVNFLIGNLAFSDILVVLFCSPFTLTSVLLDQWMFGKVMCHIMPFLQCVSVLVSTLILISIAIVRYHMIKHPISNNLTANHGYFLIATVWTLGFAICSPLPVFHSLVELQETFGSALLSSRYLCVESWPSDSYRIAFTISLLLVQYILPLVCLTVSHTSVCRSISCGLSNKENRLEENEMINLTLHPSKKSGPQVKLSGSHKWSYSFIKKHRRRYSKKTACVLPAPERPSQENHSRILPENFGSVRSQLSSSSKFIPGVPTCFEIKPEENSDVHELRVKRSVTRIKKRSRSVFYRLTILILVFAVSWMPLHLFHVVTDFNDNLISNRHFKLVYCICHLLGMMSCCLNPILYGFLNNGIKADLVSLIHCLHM
The experiment in a line: Human Neuropeptide Y5 receptor binding affinity.

Consider `O=C(NNC(=O)[C@H]1CC[C@H](CNS(=O)(=O)c2cccc3cccnc23)CC1)c1cccs1`, for which the pIC50 in experiment [1] was under 5.00; in experiment [2], 6.83.

`Cc1ccc(S(=O)(=O)NC[C@H]2CC[C@H](C(=O)NNC(=O)c3cc4ccccc4s3)CC2)cc1`: the values for the pIC50 in experiment [1] and in experiment [2] were under 5.00 and 7.37, respectively.

As for `O=C(NNC(=O)[C@H]1CC[C@H](CNS(=O)(=O)c2cccc3cccnc23)CC1)c1cc2ccccc2s1`, the negative-log IC50 (pIC50) in experiment [1] was under 5.00; in experiment [2], 7.04.

For the compound `O=C(NNC(=O)[C@H]1CC[C@H](CNS(=O)(=O)c2ccc(Br)cc2)CC1)c1cc2ccccc2s1`, the pIC50 in experiment [1] is under 5.00; in experiment [2] it was 7.55.

In the case of `CC(C)c1cc(C(C)C)c(S(=O)(=O)NC[C@H]2CC[C@H](C(=O)NNC(=O)c3cc4ccccc4s3)CC2)c(C(C)C)c1`, the results for the pIC50 in experiment [1] and in experiment [2] were under 5.00 and 6.85, respectively.

`O=C(NNC(=O)[C@H]1CC[C@H](CNS(=O)(=O)c2ccc(Br)cc2)CC1)c1cccs1`: the values for the pIC50 in experiment [1] and in experiment [2] were under 5.00 and 8.11, respectively.

As for `O=C(NNC(=O)[C@H]1CC[C@H](CNS(=O)(=O)c2ccccc2)CC1)c1cccs1`, the negative-log IC50 (pIC50) in experiment [1] is under 5.00; in experiment [2] it was 7.49.

With `O=C(NNC(=O)[C@H]1CC[C@H](CNS(=O)(=O)c2ccccc2)CC1)c1cc2ccccc2s1`, the negative logarithm of the IC50 (pIC50) in experiment [1] is under 5.00; in experiment [2], 6.76.

In the case of `O=C(NNC(=O)[C@H]1CC[C@H](CNS(=O)(=O)c2cccs2)CC1)c1cccs1`, the negative logarithm of the IC50 (pIC50) is under 5.00 in experiment [1] and 7.90 in experiment [2].

Consider `O=C(NNC(=O)[C@H]1CC[C@H](CNS(=O)(=O)c2ccc(Cl)cc2)CC1)c1cccs1`, for which the values for the pIC50 in experiment [1] and in experiment [2] were under 5.00 and 7.32, respectively.

For the compound `Cc1ccc(S(=O)(=O)NC[C@H]2CC[C@H](C(=O)NNC(=O)c3cccs3)CC2)cc1`, the negative logarithm of the IC50 (pIC50) in experiment [1] is under 5.00; in experiment [2], 7.69.

For `CC(C)c1cc(C(C)C)c(S(=O)(=O)NC[C@H]2CC[C@H](C(=O)NNC(=O)c3cccs3)CC2)c(C(C)C)c1`, the pIC50 in experiment [1] is under 5.00; in experiment [2], 7.32.

Turning to `O=C(NNC(=O)[C@H]1CC[C@H](CNS(=O)(=O)c2ccc(Cl)cc2)CC1)c1cc2ccccc2s1`, the results for the negative logarithm of the IC50 (pIC50) in experiment [1] and in experiment [2] were under 5.00 and 6.55, respectively.

For the compound `O=C(NNC(=O)[C@H]1CC[C@H](CNS(=O)(=O)c2cccs2)CC1)c1cc2ccccc2s1`, the pIC50 was under 5.00 in experiment [1] and 7.94 in experiment [2].

What is called pIC50 is the IC50 on a negative log10 scale, so that one unit is a factor of ten.
